Common to all, as to type: biochemical
Assay [1] relates to trehalase derived from Rhodococcus globerulus ATCC 14898. In words: Test Example 1: specificity of inhibition by 1,5-anhydroglucitol. The following applies: for Inhibition (%): test sugar 1 mM, 100 mM phosphate buffer pH 7.0, 10 mg/ml trehalose, 10 minutes. The method, then:
A reaction mixture was prepared by adding 10 mU/ml trehalase prepared in Reference Example 3, 0.81 mg/ml 4-aminoantipyrine, 1 mg/ml EMSE, 30 U/ml glucose oxidase, 10 U/ml peroxidase, and 1 mM test sugar shown in Table 4 to 100 mM phosphate buffer (pH 7.0). After addition of 10 mg/ml trehalose to the reaction mixture and stirring, the change in absorbance at 550 nm was measured with a spectrophotometer.

For assay [2], the system named is trehalase derived from Nocardia sp. NK-2067. Nature of the assay: Effect of metal chelating agents, enzyme inhibitors and metal ions on the novel trehalase. The method, then: The effect of various metal chelating agents, enzyme inhibitors and metal ions on the enzyme was investigated at a concentration of 1 mM.
(§1) To 1 ml of the substrate solution is added 0.02 ml of an enzyme solution, and reaction is carried out at 37° C. for 30 minutes. The reaction is stopped by heating at 100° C. for 3 minutes. To the reaction mixture is added 1 ml of the color-producing reagent, and reaction is carried out at 37° C. for 20 minutes, followed by measurement of the absorbance at 500 nm. A control solution is prepared by using water instead of the enzyme solution in the above procedure.

Assay [3] shares this test system. Nature of the assay: Inhibition specificity of the novel trehalase to various sugars, trehalose as substrate. As to conditions: sugar at 1.75 mM. The method, then:
The enzyme was also examined for inhibition specificity to various sugars at 1.75 mM using trehalose as a substrate.
(§2) Trehalose is dissolved in 100 mM phosphate buffer (pH 5.5) to give a concentration of 12.5 mM.
(§3) Glucose oxidase (Toyobo Co., Ltd., Grade II), peroxidase (Toyobo Co., Ltd., Grade III), 4-aminoantipyrine and phenol are dissolved in water to give final concentrations of 0.04 mg/ml, 0.04 mg/ml, 1.2 mM and 21 mM, respectively.
as §1
(§4) The trehalase activity is expressed by unit, one unit being defined as that amount of the enzyme which will hydrolyze 1 μmol of trehalose at 37° C. in one minute. The activity per milliliter of enzyme solution (U/ml) can be calculated from the net difference in absorbance (enzyme solution-control solution) according to the following equation. [formula]

Assay [4] shares this test system. Nature of the assay: Substrate specificity of the novel trehalase (activity on various substrates). The following applies: for Relative activity (%): substrate 1.75 mM, 100 mM phosphate buffer pH 5.5, activity on trehalose defined as 100. As for the experimental part:
The activity of the enzyme on various substrates was measured at a substrate concentration of 1.75 mM in 100 mM phosphate buffer (pH 5.5). The results are shown in Table 1 as relative activities, the activity on trehalose being defined as 100.
The enzyme activity is measured in the following manner.
as §2, §3, §1, §4

Assay [5] has the same test system. In words: Example 6: inhibition of trehalase, calibration curve. As to conditions: pH 7.0, FIG. 9. As for the experimental part: (§5) A reaction mixture was prepared by adding 10 mU/ml trehalase prepared in Reference Example 2, 0.81 mg/ml 4-aminoantipyrine, 1 mg/ml EMSE, 30 U/ml glucose oxidase, 10 U/ml peroxidase, and a sample containing 1,5-anhydroglucitol at a varied concentration to 100 mM phosphate buffer (pH 7.0). After addition of 10 mg/ml trehalose to the reaction mixture and stirring, the increase in absorbance at 550 nm was measured with a spectrophotometer.
The same procedure as in Example 3 was repeated, except that trehalase derived from Nocardia sp. prepared in Example 5 was used.

Assay [6] concerns trehalose phosphorylase derived from Catellatospora ferruginea FERM BP-4329. In words: Example 1: inhibition of the decomposition activity of trehalose phosphorylase. As to conditions: pH 7.0, FIG. 5. As for the experimental part:
A reaction mixture was prepared by adding 10 mU/ml trehalose phosphorylase derived from Catellatospora ferruginea prepared in Reference Example 1, 2.5 U/ml […] (Beckman Instruments, Inc.), 5 U/ml glucose-6-phosphate dehydrogenase (Sigma Chemical Co.), 10 mM NADP, and a sample containing 1,5-anhydroglucitol at a varied concentration to 100 mM phosphate buffer (pH 7.0). After addition of 10 mg/ml trehalose to the reaction mixture and stirring, the increase in absorbance at 340 nm was measured with a spectrophotometer.

Assay [7] deals with trehalase derived from Nocardia sp. NK-2067. Nature of the assay: Substrate and inhibitor affinity by Lineweaver-Burk plot. As to conditions: pH 5.5, Lineweaver-Burk plot. As for the experimental part: The Km value of the enzyme for trehalose at pH 5.5 as determined by Lineweaver-Burk plot [J. Am. Chem. Soc., 56, 658 (1934)] is 6.7 mM.
Assay [8] concerns trehalose phosphorylase derived from Catellatospora ferruginea FERM BP-4329. Nature of the assay: Example 2: inhibition of the synthesis activity of trehalose phosphorylase. As to conditions: imidazole buffer pH 7.0, FIG. 6. As for the experimental part: A reaction mixture (3 ml) was prepared by adding 10 mU/ml trehalose phosphorylase prepared in Reference Example 1, 50 mM glucose, 2 ml of a kit for the determination of inorganic phosphorus (Kyowa Medex Co., Ltd.), and a sample containing 1,5-anhydroglucitol at a varied concentration to 50 mM imidazole buffer (pH 7.0). After addition of 50 mM β-glucose-1-phosphate to the reaction mixture and stirring, the increase in absorbance at 550 nm was measured with a spectrophotometer.

For assay [9], the system named is trehalase derived from Rhodococcus globerulus ATCC 14898. Nature of the assay: Example 4: inhibition of trehalase, calibration curve. The following applies: pH 7.0, FIG. 8. The method, then: as §5
The same procedure as in Example 3 was repeated, except that trehalase derived from Rhodococcus globerulus prepared in Reference Example 3 was used.

For assay [10], the system named is trehalase derived from Streptomyces aureofaciens ATCC 10762. Nature of the assay: Example 3: inhibition of trehalase, calibration curve. As to conditions: pH 7.0, FIG. 7. The method, then:
as §5

The record followed here is patent US6153419A, “Method for quantitative determination of 1,5-anhydroglucitol” (Kyowa Hakko Kogyo Co., Ltd., priority 1996, dated 2000).

Each structure is given as a SMILES string. Like-named read-outs stand apart in the source and are kept apart here.

In the case of `C[C@@H]1OC(O)[C@@H](O)[C@H](O)[C@@H]1O` (stereo partly drawn) [L-Fucose], the “Inhibition (%)” value in [1] is 0%. Regarding `[Ba+2].[Cl-].[Cl-]` [BaCl2], the “Inhibition (%)” value in assay [2] (compound at 1 mM) is given as 40.7%. With `O=C1CCC(=O)N1Br` [N-Bromosuccinimide], the “Inhibition (%)” value in assay [2] (compound at 1 mM) came out at 23.4%.

With `c1cnc2c(c1)ccc1cccnc12` [1,10-Phenanthroline], the “Inhibition (%)” value in assay [2] (compound at 1 mM) is given as 88.5%. Further, the “Inhibition of the enzyme in words” value in assay [2] (summary of Table 3) was “inhibited”. Turning to `CC(=O)N[C@H]1C(O)O[C@H](CO)[C@@H](O)[C@@H]1O` (stereo partly drawn) [N-Acetyl-D-glucosamine], the “Inhibition (%)” value in assay [1] is 0%. Turning to `OC[C@H]1OC(O)[C@@H](O)[C@@H](O)[C@@H]1O` (stereo partly drawn) [D-Mannose], the “Inhibition (%)” value in [1] is recorded as 0.5%.

On to `C[C@H]1OC(O)[C@H](O)[C@@H](O)[C@H]1O` (stereo partly drawn) [D-Fucose], for which, in assay [1], the “Inhibition (%)” value was 0%. As for `O=S(=O)([O-])[O-].[Ni+2]` [NiSO4, nickel sulfate], in assay [2], the “Inhibition (%)” value is 62.1% and the “Inhibition of the enzyme in words” value is “inhibited”. For the molecule `NC(=O)CI` [Iodoacetamide], in [2] (compound at 1 mM), the “Inhibition (%)” value was 83.6%. For the same molecule, the “Inhibition of the enzyme in words” value in assay [2] (summary of Table 3) is reported as “inhibited”. Regarding `O=C(CO)[C@@H](O)[C@H](O)[C@H](O)CO` [D-Fructose], the “Inhibition (%)” value in [1] stood at 0%.

In the case of `OC[C@H]1O[C@@](CO)(O[C@H]2O[C@H](CO)[C@@H](O)[C@H](O)[C@H]2O)[C@@H](O)[C@@H]1O` [Sucrose], the “Inhibition (%)” value in assay [3] and in [1] was 0% throughout. Besides, the “Relative activity (%)” value in assay [4] amounted to 0%. On to `CCN(CC)C(=S)S` [Diethyldithiocarbamic acid], for which the “Inhibition (%)” value in [2] (compound at 1 mM) was 51.0%.

For `c1ccc(-c2ccccn2)nc1` [2,2'-Bipyridyl], in assay [2] (compound at 1 mM), the “Inhibition (%)” value worked out at 60.0%. Further, the “Inhibition of the enzyme in words” value in assay [2] (summary of Table 3) was “inhibited”. As for `O=S(=O)([O-])[O-].[Zn+2]` [ZnSO4], the “Inhibition (%)” value in assay [2] (compound at 1 mM) came to 53.4%. For the molecule `OC[C@H]1O[C@H](O[C@H]2C(O)O[C@H](CO)[C@@H](O)[C@@H]2O)[C@H](O)[C@@H](O)[C@@H]1O` (stereo partly drawn) [Kojibiose], in assay [3], the “Inhibition (%)” value is reported as 0%. In addition, in assay [4], the “Relative activity (%)” value worked out at 0%.

As to `OC[C@H]1OC(O)[C@H](O)[C@@H](O)[C@H]1O` (stereo partly drawn) [D-Galactose], the “Inhibition (%)” value in assay [1] is on record as 0.2%.

The term Ki denotes the dissociation constant of the complex between target and ligand, obtained from inhibition or displacement. For the molecule `OC[C@H]1OC[C@H](O)[C@@H](O)[C@@H]1O` [1,5-Anhydroglucitol], the “Relationship between inhibition rate and concentration” value in assay [5], in assay [6], in assay [8], in assay [9] and in [10] was “good linear relationship” throughout. Also, in [7] (read-out: Ki value of the enzyme), the Ki amounted to 330 µM. The “Inhibition (%)” value in assay [3] worked out at 80.7%; in [1], 45.0%. Moreover, in [1] (conclusion from Table 4), the “Specificity of inhibition in words” value was “inhibited specifically”.

Take `OC[C@H]1O[C@H](O[C@H]2[C@H](O)[C@@H](O)[C@H](O)O[C@@H]2CO)[C@H](O)[C@@H](O)[C@@H]1O` [Maltose]: the “Inhibition (%)” value in assay [3] and in [1] was 0% throughout. In addition, the “Relative activity (%)” value in assay [4] came out at 0%. Turning to `CCN1C(=O)C=CC1=O` [N-Ethylmaleimide], in assay [2] (compound at 1 mM), the “Inhibition (%)” value was determined as 21.9%. Regarding `[Cl-].[Cl-].[Co+2]` [CoCl2], in assay [2] (compound at 1 mM), the “Inhibition (%)” value is given as 20.4%. The Km is the concentration of substrate that gives half-maximal velocity. Regarding `OC[C@H]1O[C@H](O[C@H]2O[C@H](CO)[C@@H](O)[C@H](O)[C@H]2O)[C@H](O)[C@@H](O)[C@@H]1O` [Trehalose], in assay [7] (read-out: Km value of the enzyme), the Michaelis-Menten constant (Km) amounted to 6.7 mM. For the same molecule, the “Substrate specificity in words” value in assay [4] (conclusion from Table 1) is reported as “specifically acts on”. The “Relative activity (%)” value in assay [4] worked out at 100%. `[N-]=[N+]=[N-]` [Sodium azide]: the “Inhibition (%)” value in [2] (compound at 1 mM) came out at 22.8%. Regarding `O=C(O)c1cc[c]([Hg][OH])cc1` [p-Mercuribenzoic acid], the “Inhibition (%)” value in assay [2] (compound at 1 mM) turned out to be 94.7%. Besides, the “Inhibition of the enzyme in words” value in [2] (summary of Table 3) was “inhibited”. `OC1OC[C@@H](O)[C@H](O)[C@H]1O` (stereo partly drawn) [D-Xylose]: the “Inhibition (%)” value in [1] is given as 0%. Take `N[C@H]1[C@@H](O[C@H]2O[C@H](CO)[C@@H](O)[C@H](O)[C@H]2O)O[C@H](CO)[C@@H](O)[C@@H]1O` [Trehalosamine]: the “Relative activity (%)” value in assay [4] stood at 0.5%. Regarding `OC[C@H]1O[C@@H](O[C@H]2[C@H](O)[C@@H](O)C(O)O[C@@H]2CO)[C@H](O)[C@@H](O)[C@H]1O` (stereo partly drawn) [Lactose], in assay [3], the “Inhibition (%)” value came to 0%. Besides, the “Relative activity (%)” value in [4] is reported as 0%. For `N[C@H]1C(O)O[C@H](CO)[C@@H](O)[C@@H]1O` (stereo partly drawn) [D-Glucosamine], the “Inhibition (%)” value in assay [1] is 0%. For `OC[C@H]1O[C@H](O[C@H]2[C@H](O)[C@@H](CO)OC(O)[C@@H]2O)[C@H](O)[C@@H](O)[C@@H]1O` (stereo partly drawn) [Nigerose], in assay [3], the “Inhibition (%)” value was found to be 0%. The “Relative activity (%)” value in assay [4] came out at 0%.

For `O=C(O)CN(CCN(CC(=O)O)CC(=O)O)CC(=O)O` [EDTA, ethylenediaminetetraacetic acid], in assay [2], the “Inhibition (%)” value worked out at 67.6% and the “Inhibition of the enzyme in words” value was “inhibited”. Consider `NO` [Hydroxylamine], for which the “Inhibition (%)” value in assay [2] (compound at 1 mM) is given as 81.2%. The “Inhibition of the enzyme in words” value in [2] (summary of Table 3) is reported as “inhibited”.
